Earlier results as cited in PMC10017685 (Nature Communications, 2023).

Test system: human erythrocytes
Parameters: method as in DBAASP
Settings: cited from earlier work

Row | Sequence | Class (dedicated toxicity dataset used for toxicity classifier evaluation)
1 | GILSSLLKKWKKIIAK [DBAASP_8916] | 0
2 | KWCFRVCYRGICYRRCR [DBAASP_2229] | 0
3 | KIAGKIAKIAGKIA [DBAASP_10129] | 0
4 | GRKKRRQRRRGALWKSLLKNVGKA [DBAASP_11807] | 0
5 | GLLKKIKWLL [DBAASP_7430] | 0
6 | GKWKKILGKLIR [DBAASP_3277] | 0
7 | GFCWRACVYRNGVRVCYRRCN [DBAASP_17226] | 0
8 | IAKIAGKIAKIAGKIAKIAGKIAK [DBAASP_14999] | 1
9 | GIMSSLMKKLAKIIKK [DBAASP_8903] | 0

Same assay, conditions: toxicity class label 1 or 0, meaning of the labels not given; DBAASP HC50 data, human erythrocytes; ref DBAASP; cited from earlier work

Row | Sequence | Class (dedicated toxicity dataset used for toxicity classifier evaluation)
10 | GIIKKIIKKIIKKI [DBAASP_4594] | 0
11 | GIIKKIIKKIIKK [DBAASP_13882] | 0
12 | GLNALKKFFQGIHEAIKLINNHVQ [DBAASP_6934] | 0
13 | GLNALKKVFQGIHEAIKLINNHVK [DBAASP_6927] | 0
14 | KWCVYAYVKVKGVLVKYKKCW [DBAASP_2027] | 0
15 | FWGALAKGALKLIPSLFSSFSKKD [DBAASP_948] | 1
16 | GLVGTLLGHIGKAILS [DBAASP_5370] | 0
17 | GLLKPLLKIAAKVGSNLL [DBAASP_2279] | 0
18 | GLFDVIKKVASVIGGL [DBAASP_1320] | 0
19 | KLGFENFLVKALKTVMHVPTSPLL [DBAASP_5711] | 0
20 | GLLKRIKTLL [DBAASP_7447] | 1
21 | AAKKGCWTVSIPPKPCF [DBAASP_12530] | 0
22 | IKKWWSKIKKLLK [DBAASP_7156] | 0
23 | GWLDVAKKIGKAAFNVAKNFI [DBAASP_7670] | 1
24 | FLPVIASVAAKVLPKVFCFITKKC [DBAASP_6169] | 1
25 | ALWKTMLKKLGTMALHAGK [DBAASP_10088] | 0
26 | GLLKFIKTLL [DBAASP_3138] | 0
27 | GLLKRIKNLL [DBAASP_3146] | 0
28 | FLPLLLAGLPKLLCLFFKKC [DBAASP_1470] | 1
29 | FLPIIAGIAAKFLPKIFCTISKKC [DBAASP_4214] | 1
30 | SKVWRHWRRFWHRAHRLH [DBAASP_9101] | 0
31 | GLLKRIKTL [DBAASP_13873] | 1
32 | FFHHIFRGVVHVGKTIHRLVTG [DBAASP_9007] | 0
33 | VQLRIRVAVIRA [DBAASP_7109] | 0
34 | IIKKIIKKIIKK [DBAASP_13883] | 0
35 | VRRFPYWWPFLRR [DBAASP_14259] | 0
36 | GVGKFLHSAKKFGQALASEIMKS [DBAASP_3769] | 0

Row | Sequence | Class (dedicated toxicity dataset used for toxicity classifier evaluation)
37 | RWRRFWRR [DBAASP_12823] | 0
38 | RIGVLLARLPKLFSLFKLMGKKV [DBAASP_4189] | 0
39 | GLLKKIKTLL [DBAASP_3141] | 0
40 | KIWFQNKKMKWKK [DBAASP_8802] | 0
41 | GLKLLLSLGLKLL [DBAASP_13848] | 0
42 | DSHAKRHHGYKRKFHEKHHSHRGY [DBAASP_15] | 0
43 | KIWFQNRRMKWKK [DBAASP_8800] | 0
44 | ALWKTMLKKLGTMA [DBAASP_10092] | 0
45 | KWAVRIIRKFIKGFIS [DBAASP_13726] | 0
46 | GLKKIFKAGLGSLKKGIAAHVAS [DBAASP_4412] | 0
47 | WWWLRRRW [DBAASP_10634] | 0
48 | GFGMALKLLKKVL [DBAASP_3442] | 0
49 | GLLKRIKTLL [DBAASP_3116] | 0
50 | FFLLSLIPSAISAIKKI [DBAASP_8438] | 0
51 | AIGSILGALAKGLPTLISWIKNR [DBAASP_2156] | 1
52 | GLLGKLLKIAAKVGSNLL [DBAASP_4922] | 1
53 | GFMSKVANFAKKFAKGGVNAIMNQK [DBAASP_5718] | 0
54 | FPVTWPTKWWEG [DBAASP_9720] | 0
55 | WLRRIKAWLRRIKA [DBAASP_7164] | 0
56 | LALKSGGWLRLFGLKDKKH [DBAASP_6706] | 0
57 | GWASSIGSILGKFAKGGAQAFLQPK [DBAASP_5714] | 0
58 | RIRWILRYWRWS [DBAASP_10701] | 0
59 | KLLGPLLKIAAKVGSNLL [DBAASP_4921] | 0
60 | FLPAIAGVAAKFLPKIFCAITKKC [DBAASP_13909] | 0
61 | GIMSSLMKKLKKHIAK [DBAASP_8897] | 0
62 | RWFKIQMQIRRWKNKK [DBAASP_8804] | 0
63 | WLRRIKAWLRRKRK [DBAASP_10627] | 0

Row | Sequence | Class (dedicated toxicity dataset used for toxicity classifier evaluation)
64 | FLSLIPKIATGIAALAKHL [DBAASP_10833] | 1
65 | RWCVYAYVRVRGVLVRYRRCW [DBAASP_13517] | 0
66 | FPVTWPTKWLKG [DBAASP_9721] | 0
67 | GIWDTIKSMGKVFAGAILQNL [DBAASP_700] | 1
68 | FPVTWRWWKWWKG [DBAASP_716] | 0
69 | GLNALKKVFQGIHEAIKLINKHVQ [DBAASP_6926] | 0
70 | FLPFVGNLLKGLL [DBAASP_1881] | 0
71 | CVKVSVKVGSGVKVSVKVC [DBAASP_348] | 0
72 | TIAMRAINNYRWRSKNQNTFLR [DBAASP_6544] | 1
73 | VRRFPYWYPFLRR [DBAASP_14264] | 0
74 | VKRFKKFFRKFKKSV [DBAASP_8772] | 0
75 | CWKWKWKWGSGWKWKWKWC [DBAASP_353] | 0
76 | FIGAIARLLSKIF [DBAASP_1465] | 1
77 | GVVKRIKTVV [DBAASP_8620] | 0
78 | GWKKWFNRAKKVGKTVGGLAVDHYL [DBAASP_996] | 0
79 | FLSLIPHIASGIASLVKNF [DBAASP_12390] | 1
80 | KIKWILKYWKWS [DBAASP_10700] | 0
81 | FLPILAGLAANILPKVFCSITKKC [DBAASP_4221] | 1
82 | KFKKVIWKSFL [DBAASP_13719] | 0
83 | FPFLLSLIPSAISALKKL [DBAASP_18191] | 0
84 | KFKKLFKKLSPVFKRIVQRIKDFLR [DBAASP_13190] | 0
85 | KRIVQRIKKWLR [DBAASP_6827] | 0
86 | GLKKIFKAGLGSLVKGIAAHVAS [DBAASP_4408] | 0
87 | HFKGTLVNLAKKIL [DBAASP_5016] | 0
88 | FLPGILKVAANVVPGVI [DBAASP_16463] | 0
89 | GIMSSLMKKLAKHIAK [DBAASP_8895] | 0
